# Assay results from US20220133747A1, “ESTROGEN RECEPTOR INHIBITORS AND USES THEROF” (The Regents of the University of California, priority 2018, published 2022).
# “Also recorded” adds a separate entry of the source.
# Tests used:
# ERα = target: T1, ERα (Homo sapiens, UniProt P03372); assay: Downregulation of ER protein, PAGE and Western immunoblot in MCF-7 cells; assay type: cell-based; conditions: 100 nM, 4 hours, phenol-red free medium without FBS
# T1 construct: endogenous in cells; host or cells: MCF-7 human breast cancer cells (ATCC)
# T1 sequence (P03372 1-595): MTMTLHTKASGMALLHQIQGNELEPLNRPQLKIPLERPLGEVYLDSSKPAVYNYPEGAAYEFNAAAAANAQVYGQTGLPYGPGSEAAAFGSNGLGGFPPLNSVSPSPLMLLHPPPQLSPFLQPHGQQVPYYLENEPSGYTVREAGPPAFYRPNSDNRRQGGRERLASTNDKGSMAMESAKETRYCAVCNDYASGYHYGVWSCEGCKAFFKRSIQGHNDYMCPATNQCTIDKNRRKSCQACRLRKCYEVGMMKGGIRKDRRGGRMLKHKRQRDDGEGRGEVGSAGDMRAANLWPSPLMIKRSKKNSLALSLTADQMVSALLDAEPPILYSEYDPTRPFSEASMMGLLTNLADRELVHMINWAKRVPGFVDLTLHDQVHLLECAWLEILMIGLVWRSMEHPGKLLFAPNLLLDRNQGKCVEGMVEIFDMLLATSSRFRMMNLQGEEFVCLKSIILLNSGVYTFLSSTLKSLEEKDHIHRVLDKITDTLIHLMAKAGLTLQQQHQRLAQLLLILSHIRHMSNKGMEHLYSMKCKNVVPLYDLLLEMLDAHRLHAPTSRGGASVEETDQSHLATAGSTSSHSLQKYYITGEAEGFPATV
# Method: (§1) FIGS. 20A-20C show biologic activity of selected SERD candidates. […] ER-positive MCF-7 cells were treated in phenol-red free RPMI 1640 without FBS and containing vehicle control (CON) or 100 nM concentrations of either fulvestrant (FX) or antiestrogens 105, 109, 121, 140, 151, 160 or SERD128 in vitro. After 4 hours, cells were harvested and processed for PAGE and Western immunoblots using ERα antibody (1D5, Thermofisher Scientific). RPL13A was used as a loading control. […] Cells were dosed with either E2 alone or with SERDs combined with E2 in phenol redfree medium with 0.1% dextran-coated charcoal-treated FBS in luminometer plates. Data are presented as relative light units (RLU) relative to that of E2 alone in three replicate assays (4 wells per replicate) f SEM. Treatment with E2 alone induced a 12-fold induction of ER-dependent luciferase activity quantified as RLU relative to vehicle control-treated samples.
# MCF7 cells were plated in regular medium. After 24 hrs, cells were incubated in the presence of antiestrogens or fulvestrant for 4 hrs in phenol-red free medium without FBS. Cell lysates were prepared using RIPA buffer, and protein concentration was determined using the BCA Protein Assay Kit (PIERCE/ThermoFisher Scientific). Forty micrograms of total cell protein was resolved by 4-15% SDS-PAGE, transferred to a PVDF membrane and probed with antibody directed against ERα (1D5, 1:100, ThermoFisher cat #MA5-13191). RPL13A (dilution 1:1000, Invitrogen/ThermoFisher cat #PA5-58528) was used as loading control.
# ER = target: T2, ER (Homo sapiens, UniProt P03372); assay: Specific [3H]estradiol-17β binding competition in MCF-7 breast cancer cells; conditions: MCF-7 cells, 10 nM
# T2 construct: endogenous in cells; host or cells: MCF-7 human breast cancer cells in suspension (intact cells)
# T2 sequence (P03372 1-595): T1 sequence (P03372 1-595)
# Method: as §1
# Specific estradiol-17β (E2) binding and competition for binding by antiestrogen SERD128 or fulvestrant was assessed in human MCF-7 breast cancer cells using methods as described before. […] Competitive ligand binding to ER-positive MCF-7 cells is detected by the ability of a test compound to displace labeled estradiol-17β from the cells in vitro.
# [1] = test system: ER-dependent transcription; assay: ERE-luciferase T47D reporter, ER-dependent transcriptional activity; assay type: cell-based, human; conditions: T47D ERE-luciferase, 10 nM with 2 nM 17β-estradiol
# Method: as §1
# A stable ER-positive T47D ERE luciferase reporter cell line, in which the ERE and the reporter luciferase gene are consistently expressed in the cell line were used in this study (Signosis). […] Lysate was mixed 1:1 with luciferase substrate (Promega), and luminescence was measured using a MLX microtiter plate luminometer (Dynex) and quantified as relative light units (RLU) according to established procedures. Total protein was quantified using BioRad Protein Assay (BioRad).
# ZR75 cells = assay: Cell proliferation assay, ZR75; assay type: cell-based, human; conditions: ZR75, 10 nM with 2 nM estradiol-17β, 48 hr
# [2] = Screen of SERD candidates in antitumor assays, comparison with fulvestrant; conditions: a number of antitumor assays
# From the text: We designed, synthesized and screened more than 65 new SERD candidates, all of which have the general structure shown in 1′, namely 11β-aryloxy estradiols, with a basic amine positioned at the 4-position of the aryl ring (FIG. 16). The basic amine is connected to the aryl unit either directly or via a spacer that varies from 3-6 atoms. […] We note that this new class of steroid-like SERDs lack the prototypical side chain (as in fulvestrant) widely used to design other drugs with ERα antagonism, but these SERD candidates generate a full antagonist profile and induce significant ERα down-regulation, likely similar to significant ‘indirect’ receptor antagonism as reported in previous independent studies of 11β-substitutions in ERα [51, 52] and other structural changes as in an independent report.
compound,measurement,setting,value
"C[C@]12C[C@H](Oc3ccc(N)c(C(F)(F)F)c3)[C@@H]3c4ccc(O)cc4CC[C@H]3[C@@H]1CC[C@@H]2O [SERD128, (8S,9S,11S,13S,14S,17S)-11-(4-Amino-3-(trifluoromethyl)phenoxy)-13-methyl-7,8,9,11,12,13,14,15,16,17-decahydro-6H-cyclopenta[a]phenanthrene-3,17-diol]",downregulation of ER protein (ERα protein levels),ERα,comparable to that of the pure antiestrogen fulvestrant
same,downregulation of ER protein (ERα protein levels),ERα; listed as 128,most effective in reducing ER protein levels; also recorded: comparable to that of fulvestrant
same,competition for specific [3H]estradiol-17β (E2) binding,ER,comparable to that of the pure antiestrogen fulvestrant
same,ER-dependent luciferase activity (RLU relative to E2 alone),[1],comparable to that of the pure antiestrogen fulvestrant
same,cell proliferation (% of estradiol-treated controls),ZR75 cells,significantly blocked proliferation; also recorded: significantly inhibited
same,activity relative to fulvestrant,[2],more potent than fulvestrant
